Source: publication PMC6576746, “Rational discovery of dual-indication multi-target PDE/Kinase inhibitor for precision anti-cancer therapy using structural systems pharmacology” (PLoS Computational Biology, 2019)

Experiments:
Assay in all cases: cells
Parameters in all cases: species or system panel of human cancer cell lines; Eurofins OncoPanel proliferation; nuclei count by high-content fluorescence imaging, 10-point dose response
A-253 = details: Homo sapiens, A253, 72 h, cell count, 3 days
Method in brief: (§1)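 Ten half-log concentrations from 100 μM (0.1% DMSO max) applied one day post-seeding, 3-day exposure at 37°C; untreated time-zero plate for GI50. Readout is nuclear cell count by automated fluorescence imaging, giving EC50, IC50, GI50 and 0–10 activity area.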

A172 = details: Homo sapiens, A 172, 72 h, cell count, 3 days
Method in brief: as §1

Colo 201 = details: Homo sapiens, COLO 201, 72 h, cell count, 3 days
Method in brief: as §1

Daudi = details: Homo sapiens, Daudi, 72 h, cell count, 3 days
Method in brief: as §1

HOS = details: Homo sapiens, HOS, 72 h, cell count, 3 days
Method in brief: as §1

HT-3 = details: Homo sapiens, HT-3, 72 h, cell count, 3 days
Method in brief: as §1

Hs 852.T = details: 72 h, cell count, 3 days
Method in brief: as §1

HuTu 80 = details: Homo sapiens, HuTu80, 72 h, cell count, 3 days
Method in brief: as §1

IM-9 = details: Homo sapiens, IM-9, 72 h, cell count, 3 days
Method in brief: as §1

NALM-6 = details: Homo sapiens, NALM-6, 72 h, cell count, 3 days
Method in brief: as §1

RD = details: Homo sapiens, RD, 72 h, cell count, 3 days
Method in brief: as §1

SNB-19 = details: Homo sapiens, SNB-19, 72 h, cell count, 3 days
Method in brief: as §1

SU-DHL-4 = details: Homo sapiens, SU-DHL-4, 72 h, cell count, 3 days
Method in brief: as §1

TUR = details: 72 h, cell count, 3 days
Method in brief: as §1

[1] = 50% of maximum possible response

Q: What does the source list for `C[C@@H]1CC(=O)NN=C1c1ccc(NN=C(C#N)C#N)cc1` [levosimendan]?
A: IC50 (A-253; [1]): 62.4 µM; GI50 (A-253; corrected for time zero): 41.7 µM; EC50 (A-253; curve inflection point): 62.4 µM; IC50 (A172; [1]): 55.8 µM; GI50 (A172; corrected for time zero): 44.8 µM; EC50 (A172; curve inflection point): 55.8 µM; IC50 (Colo 201; [1]): 68.3 µM; GI50 (Colo 201; corrected for time zero): 53.8 µM; EC50 (Colo 201; curve inflection point): 68.3 µM; IC50 (Daudi; [1]): 16.3 µM; GI50 (Daudi; corrected for time zero): 14.2 µM; EC50 (Daudi; curve inflection point): 15.3 µM; IC50 (HOS; [1]): 11.4 µM; GI50 (HOS; corrected for time zero): 9.54 µM; EC50 (HOS; curve inflection point): 11.4 µM; IC50 (HT-3; [1]): 91.3 µM; GI50 (HT-3; corrected for time zero): 48.5 µM; EC50 (HT-3; curve inflection point): 91.3 µM; IC50 (Hs 852.T; [1]): 82.2 µM; GI50 (Hs 852.T; corrected for time zero): 25 µM; EC50 (Hs 852.T; curve inflection point): 82.2 µM; IC50 (HuTu 80; [1]): 16 µM; GI50 (HuTu 80; corrected for time zero): 14.2 µM; EC50 (HuTu 80; curve inflection point): 16 µM; IC50 (IM-9; [1]): 41 µM; GI50 (IM-9; corrected for time zero): 35.5 µM; EC50 (IM-9; curve inflection point): 41 µM; IC50 (NALM-6; [1]): 30.8 µM; GI50 (NALM-6; corrected for time zero): 23.4 µM; EC50 (NALM-6; curve inflection point): 30.8 µM; IC50 (RD; [1]): 20.6 µM; GI50 (RD; corrected for time zero): 15.7 µM; EC50 (RD; curve inflection point): 20.6 µM; IC50 (SNB-19; [1]): > 100 µM; GI50 (SNB-19; corrected for time zero): > 100 µM; EC50 (SNB-19; curve inflection point): > 100 µM; IC50 (SU-DHL-4; [1]): 4.77 µM; GI50 (SU-DHL-4; corrected for time zero): 3.31 µM; EC50 (SU-DHL-4; curve inflection point): 0.944 µM; IC50 (TUR; [1]): 6.72 µM; GI50 (TUR; corrected for time zero): 5.98 µM; EC50 (TUR; curve inflection point): 6.49 µM
